Measured values as given in paper PMC7602263, “Exploring the Use of Helicogenic Amino Acids for Optimising Single Chain Relaxin-3 Peptide Agonists” (Biomedicines, 2020).
Read-outs that look alike come from different tables or passages of the source. Where a SMILES comes first, the peptide text is derived from it. Where no end group is shown, it is not given here.

Key:
RXFP3 [1] = biological target: T1, RXFP3 (Homo sapiens, UniProt Q9NSD7); assay: Competition binding assay with Eu-labelled R3 B1-22R on CHO-K1 cells stably expressing RXFP3; details: read-out: pKi [logM] (converted)
T1 construct: expressed in transfected cells; host or cells: CHO-K1
T1 sequence (Q9NSD7 1-469): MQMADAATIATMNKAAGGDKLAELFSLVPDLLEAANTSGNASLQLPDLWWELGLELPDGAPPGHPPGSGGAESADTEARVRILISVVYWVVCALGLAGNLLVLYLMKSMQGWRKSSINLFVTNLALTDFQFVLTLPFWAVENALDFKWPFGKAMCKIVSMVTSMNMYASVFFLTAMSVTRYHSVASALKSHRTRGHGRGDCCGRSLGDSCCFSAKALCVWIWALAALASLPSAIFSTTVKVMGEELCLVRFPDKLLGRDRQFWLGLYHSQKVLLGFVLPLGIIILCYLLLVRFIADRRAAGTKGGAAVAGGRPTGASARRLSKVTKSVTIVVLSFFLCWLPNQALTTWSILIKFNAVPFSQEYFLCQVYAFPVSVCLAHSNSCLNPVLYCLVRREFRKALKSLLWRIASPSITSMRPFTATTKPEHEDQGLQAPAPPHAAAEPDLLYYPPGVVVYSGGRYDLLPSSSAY
Protocol: Determination of binding affinity in this study was carried out as previously described. Briefly, CHO-K1 cells stably expressing RXFP3 [38] were treated with 5 nM Eu-labelled R3 B1-22R with increasing concentrations of novel analogues. Fluorescence measurement were recorded with 340 nm excitation and 614 nm emission wavelengths. Assays were conducted in triplicates and independently repeated at least three times. […] Statistical analyses were conducted using 1-way ANOVA with uncorrected Fisher’s least square difference in GraphPad Prism 8.0.
(§1) To determine their binding affinity, the ability of increasing concentration of analogues to compete with europium labelled R3 B1-22R were measured using CHO cells stably expressing RXFP3 [37]. Their potency at RXFP3 was measured by inhibition of cAMP accumulation induced by forskolin, as RXFP3 couples to an inhibitory G-protein.

RXFP3 [2] = biological target: T1, RXFP3; assay: cAMP activity assay: inhibition of forskolin-induced cAMP accumulation in CHO-K1 cells stably expressing RXFP3; type: cell-based; details: for EC50: CHO-K1 cells stably expressing RXFP3, inhibition of cAMP accumulation stimulated by 5 μM forskolin, mean ± SEM, triplicates, three independent experiments
Protocol: CHO-KI cells stably expressing RXFP3 were used to study the ability of the novel analogues to inhibit forskolin-induced cAMP accumulation. Assays were conducted as previously described. Briefly, 5 μM forskolin was used to stimulate the cells and increasing concentrations of the novel analogues were added to measure the dose-dependent reduction in the cAMP response via activation of the Gi/o-coupled RXFP3. Each analogue was tested in triplicates and each experiment was independently repeated three times. Data are presented as mean ± SEM and were analysed using GraphPad Prism 8.0. Statistical analyses were conducted using 1-way ANOVA and uncorrected Fisher’s least square difference.
as §1

RXFP3 [3] = biological target: T1, RXFP3; parameters: method as in 2 sources, one per row (each row's own in cited_ref): ref [37] = [37]; PMID 25792111; doi:10.1007/s00726-015-1961-x; 37. Haugaard-Kedström L.M. Wong L.L. Bathgate R.A. Rosengren K.J. Synthesis and pharmacological characterization of a europium-labelled single-chain antagonist for binding studies of the relaxin-3 rec ||| ref [28] = [28]; PMID 27464307; doi:10.1021/acs.jmedchem.6b00265; 28. Hojo K. Hossain M.A. Tailhades J. Shabanpoor F. Wong L.L. Ong-Palsson E.E. Kastman H.E. Ma S.K. Gundlach A.L. Rosengren K.J. Development of a single-chain peptide agonist of the relaxin-3 receptor; details: read-out: Kd for Eu-R3 B1-22R; Kd of the Eu-labelled tracer at RXFP3, used to calculate pKi values; assay as previously described; ref [37]; cited from earlier work

Molecule	Ki (RXFP3 [1]; SEM)	EC50 (RXFP3 [2]; SEM)	other results
CC[C@H](C)[C@H](NC(=O)[C@H](Cc1ccccc1)NC(=O)C(C)(C)NC(=O)[C@H](CCCNC(=N)N)NC(=O)CNC(=O)[C@@H](N)CO)C(=O)N[C@@H](CCCNC(=N)N)C(=O)NC(C)(C)C(=O)NC(C)(C)C(=O)N[C@H](C(=O)N[C@@H](Cc1ccccc1)C(=O)NC(C)(C)C(=O)N[C@@H](CO)C(=O)NCC(=O)NCC(=O)N[C@@H](CO)C(=O)N[C@@H](CCCNC(=N)N)C(=O)N[C@@H](Cc1c[nH]c2ccccc12)C(=O)O)[C@@H](C)CC [Analogue 9] (HELM PEPTIDE1{S.G.R.[Aib].F.I.R.[Aib].[Aib].I.F.[Aib].S.G.G.S.R.W}$$$$V2.0)	2 µM	1.78 µM	–
CC[C@H](C)[C@H](NC(=O)[C@H](Cc1ccccc1)NC(=O)C(C)(C)NC(=O)[C@H](CCCNC(=N)N)NC(=O)CNC(=O)[C@H](CO)NC(C)=O)C(=O)N[C@@H](CCCNC(=N)N)C(=O)NC(C)(C)C(=O)N[C@H](C(=O)N[C@H](C(=O)N[C@@H](Cc1ccccc1)C(=O)N[C@H](C(=O)NC(C)(C)C(=O)NCC(=O)NCC(=O)N[C@@H](CO)C(=O)N[C@@H](CCCNC(=N)N)C(=O)N[C@@H](Cc1c[nH]c2ccccc12)C(=O)O)[C@@H](C)O)[C@@H](C)CC)C(C)C [Analogue 8] (HELM PEPTIDE1{[ac].S.G.R.[Aib].F.I.R.[Aib].V.I.F.T.[Aib].G.G.S.R.W}$$$$V2.0)	0.955 µM	–	EC50 (RXFP3 [2]): > 10 µM; maximum cAMP accumulation inhibition (RXFP3 [2]; at the highest concentration tested, CHO-K1 cells expressing RXFP3, forskolin-stimulated (Figure 3)): ~ 50%
CC[C@H](C)[C@@H]1NC(=O)[C@H](Cc2ccccc2)NC(=O)[C@@H](NC(=O)[C@H](CCCNC(=N)N)NC(=O)CNC(=O)[C@@H](N)CO)CSCc2cccc(c2)CSC[C@@H](C(=O)N[C@H](C(=O)N[C@H](C(=O)N[C@@H](Cc2ccccc2)C(=O)N[C@H](C(=O)N[C@@H](CO)C(=O)NCC(=O)NCC(=O)N[C@@H](CO)C(=O)N[C@@H](CCCNC(=N)N)C(=O)N[C@@H](Cc2c[nH]c3ccccc23)C(=O)O)[C@@H](C)O)[C@@H](C)CC)C(C)C)NC(=O)[C@H](CCCNC(=N)N)NC1=O [Analogue 16] (HELM PEPTIDE1{S.G.R.C.F.I.R.C.V.I.F.T.S.G.G.S.R.W}|CHEM1{[c1cc(C[*:1])cc(C[*:2])c1]}$PEPTIDE1,CHEM1,4:R3-1:R1|PEPTIDE1,CHEM1,8:R3-1:R2$$$V2.0)	1 µM	1.05 µM	–
CC[C@H](C)[C@H](NC(=O)[C@H](Cc1ccccc1)NC(=O)C(C)(C)NC(=O)[C@H](CCCNC(=N)N)NC(=O)CNC(=O)[C@H](CO)NC(C)=O)C(=O)N[C@@H](CCCNC(=N)N)C(=O)NC(C)(C)C(=O)NC(C)(C)C(=O)N[C@H](C(=O)N[C@@H](Cc1ccccc1)C(=O)NC(C)(C)C(=O)N[C@@H](CO)C(=O)NCC(=O)NCC(=O)N[C@@H](CO)C(=O)N[C@@H](CCCNC(=N)N)C(=O)N[C@@H](Cc1c[nH]c2ccccc12)C(=O)O)[C@@H](C)CC [Analogue 10] (HELM PEPTIDE1{[ac].S.G.R.[Aib].F.I.R.[Aib].[Aib].I.F.[Aib].S.G.G.S.R.W}$$$$V2.0)	–	3.24 µM	Ki (RXFP3 [1]): > 10 µM
CC[C@H](C)[C@@H]1NC(=O)[C@H](Cc2ccccc2)NC(=O)[C@@H](NC(=O)[C@H](CCCNC(=N)N)NC(=O)CNC(=O)[C@H](CO)NC(C)=O)CSCc2cccc(c2)CSC[C@@H](C(=O)N[C@H](C(=O)N[C@H](C(=O)N[C@@H](Cc2ccccc2)C(=O)N[C@H](C(=O)N[C@@H](CO)C(=O)NCC(=O)NCC(=O)N[C@@H](CO)C(=O)N[C@@H](CCCNC(=N)N)C(=O)N[C@@H](Cc2c[nH]c3ccccc23)C(=O)O)[C@@H](C)O)[C@@H](C)CC)C(C)C)NC(=O)[C@H](CCCNC(=N)N)NC1=O [Analogue 17] (HELM PEPTIDE1{[ac].S.G.R.C.F.I.R.C.V.I.F.T.S.G.G.S.R.W}|CHEM1{[c1cc(C[*:1])cc(C[*:2])c1]}$PEPTIDE1,CHEM1,5:R3-1:R1|PEPTIDE1,CHEM1,9:R3-1:R2$$$V2.0)	1.05 µM	0.851 µM	–
Eu-R3 B1-22R: europium-labelled single-chain antagonist used as tracer in the RXFP3 binding assay (RAAPYGVRLSGREFIRAVIFTSR; also: europium chelate label, attachment site not given here)	–	–	Kd (RXFP3 [3]): 0.0279 ± 0.0094 µM
CC[C@H](C)[C@H](NC(=O)[C@H](Cc1ccccc1)NC(=O)C(C)(C)NC(=O)[C@H](CCCNC(=N)N)NC(=O)CNC(=O)[C@H](CO)NC(C)=O)C(=O)N[C@@H](CCCNC(=N)N)C(=O)NC(C)(C)C(=O)NC(C)(C)C(=O)N[C@H](C(=O)N[C@@H](Cc1ccccc1)C(=O)N[C@H](C(=O)N[C@@H](CO)C(=O)NCC(=O)NCC(=O)N[C@@H](CO)C(=O)N[C@@H](CCCNC(=N)N)C(=O)N[C@@H](Cc1c[nH]c2ccccc12)C(=O)O)[C@@H](C)O)[C@@H](C)CC [Analogue 4] (HELM PEPTIDE1{[ac].S.G.R.[Aib].F.I.R.[Aib].[Aib].I.F.T.S.G.G.S.R.W}$$$$V2.0)	0.759 µM	0.0331 µM	–
CC[C@H](C)[C@H](NC(=O)[C@H](Cc1ccccc1)NC(=O)C(C)(C)NC(=O)[C@H](CCCNC(=N)N)NC(=O)CNC(=O)[C@H](CO)NC(C)=O)C(=O)N[C@@H](CCCNC(=N)N)C(=O)NC(C)(C)C(=O)N[C@H](C(=O)N[C@H](C(=O)N[C@@H](Cc1ccccc1)C(=O)N[C@H](C(=O)N[C@@H](CO)C(=O)NCC(=O)NCC(=O)N[C@@H](CO)C(=O)N[C@@H](CCCNC(=N)N)C(=O)N[C@@H](Cc1c[nH]c2ccccc12)C(=O)O)[C@@H](C)O)[C@@H](C)CC)C(C)C [Analogue 1] (HELM PEPTIDE1{[ac].S.G.R.[Aib].F.I.R.[Aib].V.I.F.T.S.G.G.S.R.W}$$$$V2.0)	0.562 µM	0.0676 µM	–
